Legend:
Assay in all cases: relative viability (nuclei count vs DMSO), 5 days (fraction); higher = more cells survive
JZL-184 + Bortezomib = compound: C1CN(CCC1C(C2=CC3=C(C=C2)OCO3)(C4=CC5=C(C=C4)OCO5)O)C(=O)OC6=CC=C(C=C6)[N+](=O)[O-] [JZL-184] + CC(C)C[C@H](NC(=O)[C@H](Cc1ccccc1)NC(=O)c1cnccn1)B(O)O [Bortezomib] (partner 0.002 µM)
Procedure, shortened: (§1)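 Lung cancer cell lines in 1536-well plates were dosed by pin tool the day after seeding, either with one drug alone or with a fixed anchor-drug dose plus five library-drug doses (not always all listed) in √10 steps. After 5 days, cells were fixed and their nuclei stained in one step (final 0.05% Triton X-100, 1% formaldehyde, 1 ug/ml Hoechst), then counted on 4× images. Relative viability is the nuclei count in treated wells divided by that in vehicle wells. Values are medians of duplicate plates.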

JZL-184 + Navitoclax = compound: C1CN(CCC1C(C2=CC3=C(C=C2)OCO3)(C4=CC5=C(C=C4)OCO5)O)C(=O)OC6=CC=C(C=C6)[N+](=O)[O-] [JZL-184] + CC1(C)CCC(c2ccc(Cl)cc2)=C(CN2CCN(c3ccc(C(=O)NS(=O)(=O)c4ccc(N[C@H](CCN5CCOCC5)CSc5ccccc5)c(S(=O)(=O)C(F)(F)F)c4)cc3)CC2)C1 [Navitoclax] (partner 0.5 µM)
Procedure, shortened: as §1

JZL-184 + OSI-027 = compound: C1CN(CCC1C(C2=CC3=C(C=C2)OCO3)(C4=CC5=C(C=C4)OCO5)O)C(=O)OC6=CC=C(C=C6)[N+](=O)[O-] [JZL-184] + COc1cccc2cc(-c3nc([C@H]4CC[C@H](C(=O)O)CC4)n4ncnc(N)c34)[nH]c12 [OSI-027] (partner 0.5 µM)
Procedure, shortened: as §1

JZL-184 + Lapatinib = compound: C1CN(CCC1C(C2=CC3=C(C=C2)OCO3)(C4=CC5=C(C=C4)OCO5)O)C(=O)OC6=CC=C(C=C6)[N+](=O)[O-] [JZL-184] + CS(=O)(=O)CCNCc1ccc(-c2ccc3ncnc(Nc4ccc(OCc5cccc(F)c5)c(Cl)c4)c3c2)o1 [Lapatinib] (partner 2 µM)
Procedure, shortened: as §1

JZL-184 + Pictilisib = compound: C1CN(CCC1C(C2=CC3=C(C=C2)OCO3)(C4=CC5=C(C=C4)OCO5)O)C(=O)OC6=CC=C(C=C6)[N+](=O)[O-] [JZL-184] + CS(=O)(=O)N1CCN(Cc2cc3nc(-c4cccc5[nH]ncc45)nc(N4CCOCC4)c3s2)CC1 [Pictilisib] (partner 1 µM)
Procedure, shortened: as §1

Cell Line	relative viability (JZL-184 + Bortezomib; first compound 0.04 µM)	relative viability (JZL-184 + Bortezomib; first compound 0.4 µM)	relative viability (JZL-184 + Bortezomib; first compound 1.265 µM)	relative viability (JZL-184 + Bortezomib; first compound 4 µM)	relative viability (JZL-184 + Navitoclax; first compound 0.04 µM)	relative viability (JZL-184 + Navitoclax; first compound 0.4 µM)	relative viability (JZL-184 + Navitoclax; first compound 1.265 µM)	relative viability (JZL-184 + Navitoclax; first compound 4 µM)	relative viability (JZL-184 + OSI-027; first compound 0.04 µM)	relative viability (JZL-184 + OSI-027; first compound 0.4 µM)	relative viability (JZL-184 + OSI-027; first compound 1.265 µM)	relative viability (JZL-184 + OSI-027; first compound 4 µM)	relative viability (JZL-184 + Lapatinib; first compound 0.04 µM)	relative viability (JZL-184 + Lapatinib; first compound 0.4 µM)	relative viability (JZL-184 + Lapatinib; first compound 1.265 µM)	relative viability (JZL-184 + Lapatinib; first compound 4 µM)	relative viability (JZL-184 + Pictilisib; first compound 0.04 µM)	relative viability (JZL-184 + Pictilisib; first compound 0.4 µM)	relative viability (JZL-184 + Pictilisib; first compound 1.265 µM)	relative viability (JZL-184 + Pictilisib; first compound 4 µM)
NCI-H1355	1.28	1.18	1.18	1.18	0.848	0.925	1.08	0.861	0.393	0.421	0.494	0.386	0.974	0.921	1.02	0.943	0.431	0.357	0.555	0.396
COR-L 105	0.922	0.742	0.837	0.759	0.878	0.813	0.905	0.585	0.908	0.731	0.744	0.703	0.349	0.352	0.394	0.327	0.448	0.41	0.368	0.37
NCI-H2228	1.1	1.01	0.995	0.835	0.841	0.823	0.836	0.91	0.643	0.51	0.613	0.632	1.37	0.796	1.03	1.15	0.235	0.311	0.309	0.518
NCI-H838	1.13	0.828	0.819	0.636	1.39	1.22	1.21	1.11	0.434	0.368	0.441	0.389	1.19	1.04	1.16	0.94	0.53	0.449	0.499	0.482
EMC-BAC-2	1.2	1.02	1.16	1.07	1.22	1.12	1.17	1.11	0.368	0.375	0.396	0.343	0.96	0.869	0.971	0.83	0.59	0.559	0.565	0.488
LU99A	1.29	1.09	1.32	1.22	0.714	0.588	0.804	0.463	0.327	0.293	0.269	0.284	1.21	0.966	1.22	0.963	0.353	0.315	0.329	0.313
PC-3 [JPC-3]	0.988	0.895	0.835	0.801	0.794	0.838	0.791	0.77	0.732	0.724	0.782	0.749	0.521	0.439	0.441	0.435	0.773	0.735	0.773	0.738

Reference: the supplement of paper PMC10307832
